Experimental data taken from ChEMBL document CHEMBL5505992, “Novel membrane-targeting isoxanthohumol-amine conjugates for combating methicillin-resistant Staphylococcus aureus (MRSA) infections” (Eur J Med Chem, 2024).
Values after ≈ are worked out from the molar mass of the structure shown.

How the values were obtained:
Staphylococcus aureus [1] = assay: Antibacterial activity against methicillin-resistant Staphylococcus aureus clinical isolate MRSA-22 measured after 16 to 18 hrs by CLSI method; type: functional; conditions: time 16-18 hrs
Staphylococcus aureus [2] = assay: Antibacterial activity against methicillin-resistant Staphylococcus aureus clinical isolate MRSA-14 measured after 16 to 18 hrs by CLSI method; type: functional; conditions: time 16-18 hrs
Escherichia coli = assay: Antibacterial activity against Escherichia coli ATCC25922 measured after 16 to 18 hrs by CLSI method; type: functional; conditions: time 16-18 hrs
Staphylococcus aureus [3] = assay: Antibacterial activity against methicillin-resistant Staphylococcus aureus clinical isolate MRSA-16 measured after 16 to 18 hrs by CLSI method; type: functional; conditions: time 16-18 hrs
[4] = Selectivity index, ratio of HC50 for hemolytic activity in sheep erythrocytes to MIC for antibacterial activity against Staphylococcus aureus ATCC 29213; type: toxicity, cell-based; conditions: read-out: Selectivity Index
Staphylococcus aureus [5] = assay: Antibacterial activity against methicillin-resistant Staphylococcus aureus clinical isolate MRSA-18 measured after 16 to 18 hrs by CLSI method; type: functional; conditions: time 16-18 hrs
Staphylococcus aureus [6] = assay: Antibacterial activity against methicillin-resistant Staphylococcus aureus clinical isolate MRSA-21 measured after 16 to 18 hrs by CLSI method; type: functional; conditions: time 16-18 hrs
Staphylococcus aureus [7] = assay: Antibacterial activity against methicillin-resistant Staphylococcus aureus clinical isolate MRSA-20 measured after 16 to 18 hrs by CLSI method; type: functional; conditions: time 16-18 hrs
Staphylococcus aureus [8] = assay: Antibacterial activity against methicillin-resistant Staphylococcus aureus clinical isolate MRSA-17 measured after 16 to 18 hrs by CLSI method; type: functional; conditions: time 16-18 hrs
Staphylococcus aureus [9] = assay: Antibacterial activity against methicillin-resistant Staphylococcus aureus clinical isolate MRSA-13 measured after 16 to 18 hrs by CLSI method; type: functional; conditions: time 16-18 hrs
Staphylococcus aureus [10] = assay: Antibacterial activity against Staphylococcus aureus ATCC 29213 measured after 16 to 18 hrs by CLSI method; type: functional; conditions: time 16-18 hrs
Staphylococcus aureus [11] = assay: Antibacterial activity against methicillin-resistant Staphylococcus aureus clinical isolate MRSA-23 measured after 16 to 18 hrs by CLSI method; type: functional; conditions: time 16-18 hrs
[12] = Hemolytic activity in sheep erythrocytes incubated for 1 hr by absorbance based analysis; type: toxicity, cell-based, Ovis aries, Erythrocyte
Staphylococcus aureus [13] = assay: Antibacterial activity against methicillin-resistant Staphylococcus aureus clinical isolate MRSA-11 measured after 16 to 18 hrs by CLSI method; type: functional; conditions: time 16-18 hrs

| SMILES | MIC (Staphylococcus aureus [1]) [µg/mL] | MIC (Staphylococcus aureus [2]) [µg/mL] | MIC (Escherichia coli) [µg/mL] | MIC (Staphylococcus aureus [3]) [µg/mL] | selectivity ratio [4] | MIC (Staphylococcus aureus [5]) [µg/mL] | MIC (Staphylococcus aureus [6]) [µg/mL] | MIC (Staphylococcus aureus [7]) [µg/mL] | MIC (Staphylococcus aureus [8]) [µg/mL] | MIC (Staphylococcus aureus [9]) [µg/mL] | MIC (Staphylococcus aureus [10]) [µg/mL] | MIC (Staphylococcus aureus [11]) [µg/mL] | HC50 at 1 h [12] [µg/mL] | MIC (Staphylococcus aureus [13]) [µg/mL] |
| --- | --- | --- | --- | --- | --- | --- | --- | --- | --- | --- | --- | --- | --- | --- |
| COc1cc(OCCCCCN2CCCC(C)C2)c(CC=C(C)C)c2c1C(=O)CC(c1ccc(OCCCCCN3CCCC(C)C3)cc1)O2 (stereo unspecified) | 8 (≈ 11.6 µM) | 8 (≈ 11.6 µM) | > 128 | 8 (≈ 11.6 µM) | 13.2 | 8 (≈ 11.6 µM) | 4 (≈ 5.81 µM) | 8 (≈ 11.6 µM) | 8 (≈ 11.6 µM) | 8 (≈ 11.6 µM) | 16 (≈ 23.2 µM) | 8 (≈ 11.6 µM) | 211 | 8 (≈ 11.6 µM) |
| COc1cc(OCCCN2CCCCC2C)c(CC=C(C)C)c2c1C(=O)CC(c1ccc(OCCCN3CCCCC3C)cc1)O2 (stereo unspecified) | 16 (≈ 25.3 µM) | 32 (≈ 50.6 µM) | > 128 | 16 (≈ 25.3 µM) | > 40 | 32 (≈ 50.6 µM) | 32 (≈ 50.6 µM) | 32 (≈ 50.6 µM) | 32 (≈ 50.6 µM) | 32 (≈ 50.6 µM) | 32 (≈ 50.6 µM) | 32 (≈ 50.6 µM) | > 1280 | 32 (≈ 50.6 µM) |
| COc1cc(OCCCCN2CCSCC2)c(CC=C(C)C)c2c1C(=O)CC(c1ccc(OCCCCN3CCSCC3)cc1)O2 (stereo unspecified) | > 128 | > 128 | > 128 | > 128 | > 10 | > 128 | > 128 | > 128 | > 128 | > 128 | 64 (≈ 95.7 µM) | > 128 | > 640 | > 128 |
| C[C@@H](O)[C@H]1C(=O)N2C(C(=O)O)=C(S[C@@H]3CN[C@H](C(=O)N(C)C)C3)[C@H](C)[C@H]12 [MEROPENEM] |  |  | 0.062 (≈ 0.162 µM) |  |  |  |  |  |  |  |  |  |  |  |
| COc1cc(OCCCN(CC(C)C)CC(C)C)c(CC=C(C)C)c2c1C(=O)CC(c1ccc(OCCCN(CC(C)C)CC(C)C)cc1)O2 (stereo unspecified) | 32 (≈ 46.2 µM) | 64 (≈ 92.3 µM) | > 128 | > 128 |  | > 128 | 32 (≈ 46.2 µM) | > 128 | > 128 | > 128 | > 128 | 32 (≈ 46.2 µM) | > 1280 | 64 (≈ 92.3 µM) |
| COc1cc(OCCCCN2CCCC(C)C2)c(CC=C(C)C)c2c1C(=O)CC(c1ccc(OCCCCN3CCCC(C)C3)cc1)O2 (stereo unspecified) | 8 (≈ 12.1 µM) | 8 (≈ 12.1 µM) | > 128 | 8 (≈ 12.1 µM) | > 7.5 | 16 (≈ 24.2 µM) | 16 (≈ 24.2 µM) | 8 (≈ 12.1 µM) | 8 (≈ 12.1 µM) | 8 (≈ 12.1 µM) | 16 (≈ 24.2 µM) | 16 (≈ 24.2 µM) | 120 | 8 (≈ 12.1 µM) |
| CCCC[N+](C)(CCCC)CCCCOc1ccc(C2CC(=O)c3c(OC)cc(OCCCC[N+](C)(CCCC)CCCC)c(CC=C(C)C)c3O2)cc1.[I-].[I-] (stereo unspecified) | 1 | 0.5 | 32 | 0.25 | > 2640 | 0.5 | 0.5 | 0.5 | 0.25 | 0.5 | 0.5 | 0.5 | > 1280 | 0.5 |
| COc1cc(OCCCCCN(CC(C)C)CC(C)C)c(CC=C(C)C)c2c1C(=O)CC(c1ccc(OCCCCCN(CC(C)C)CC(C)C)cc1)O2 (stereo unspecified) | > 128 | > 128 | > 128 | > 128 |  | > 128 | > 128 | > 128 | > 128 | > 128 | > 128 | > 128 | > 1280 | > 128 |
| CCCN(CCC)CCCCCOc1ccc(C2CC(=O)c3c(OC)cc(OCCCCCN(CCC)CCC)c(CC=C(C)C)c3O2)cc1 (stereo unspecified) | 8 (≈ 11.5 µM) | 8 (≈ 11.5 µM) | > 128 | 8 (≈ 11.5 µM) | 41.4 | 16 (≈ 23.1 µM) | 8 (≈ 11.5 µM) | 8 (≈ 11.5 µM) | 8 (≈ 11.5 µM) | 8 (≈ 11.5 µM) | 8 (≈ 11.5 µM) | 16 (≈ 23.1 µM) | 331 | 8 (≈ 11.5 µM) |
| CCCCN(CCCC)CCCCCOc1ccc(C2CC(=O)c3c(OC)cc(OCCCCCN(CCCC)CCCC)c(CC=C(C)C)c3O2)cc1 (stereo unspecified) | 8 (≈ 10.7 µM) | 4 (≈ 5.34 µM) | > 128 | 4 (≈ 5.34 µM) | 245 | 8 (≈ 10.7 µM) | 8 (≈ 10.7 µM) | 4 (≈ 5.34 µM) | 4 (≈ 5.34 µM) | 4 (≈ 5.34 µM) | 4 (≈ 5.34 µM) | 8 (≈ 10.7 µM) | 980 | 8 (≈ 10.7 µM) |
| COc1cc(OCCCCN2CCN(C)CC2)c(CC=C(C)C)c2c1C(=O)CC(c1ccc(OCCCCN3CCN(C)CC3)cc1)O2 (stereo unspecified) | 32 (≈ 48.3 µM) | 32 (≈ 48.3 µM) | > 128 | 32 (≈ 48.3 µM) | > 40 | 32 (≈ 48.3 µM) | 32 (≈ 48.3 µM) | 32 (≈ 48.3 µM) | 16 (≈ 24.1 µM) | 32 (≈ 48.3 µM) | 32 (≈ 48.3 µM) | 32 (≈ 48.3 µM) | > 1280 | 32 (≈ 48.3 µM) |
| COc1cc(OCCCCN(CC(C)C)CC(C)C)c(CC=C(C)C)c2c1C(=O)CC(c1ccc(OCCCCN(CC(C)C)CC(C)C)cc1)O2 (stereo unspecified) | > 128 | > 128 | > 128 | > 128 |  | > 128 | > 128 | > 128 | > 128 | > 128 | > 128 | > 128 | > 1280 | > 128 |
| COc1cc(O)c(CC=C(C)C)c2c1C(=O)CC(c1ccc(O)cc1)O2 (stereo unspecified) [ISOXANTHOHUMOL] | 64 (≈ 181 µM) | > 64 | > 64 | 64 (≈ 181 µM) |  | > 64 | 64 (≈ 181 µM) | 64 (≈ 181 µM) | > 64 | > 64 | > 64 | 64 (≈ 181 µM) | > 320 | 64 (≈ 181 µM) |
| COc1cc(OCCCN2CCOCC2)c(CC=C(C)C)c2c1C(=O)CC(c1ccc(OCCCN3CCOCC3)cc1)O2 (stereo unspecified) | > 128 | > 128 | > 128 | > 128 |  | > 128 | > 128 | > 128 | > 128 | > 128 | > 128 | > 128 | > 1280 | > 128 |
| COc1cc(OCCCN2CCSCC2)c(CC=C(C)C)c2c1C(=O)CC(c1ccc(OCCCN3CCSCC3)cc1)O2 (stereo unspecified) | > 128 | > 128 | > 128 | > 128 |  | > 128 | > 128 | > 128 | > 128 | > 128 | > 128 | > 128 | > 640 | > 128 |
